{"source": "the NIST ThermoML archive (doi:10.1016/j.fluid.2019.02.006)", "key": {"[1]": {"test": "xn = mol fraction of the nth substance listed", "conditions": "298.15 K, 100 kPa, Liquid, Vibrating tube method"}, "[2]": {"conditions": "298.15 K; 100 kPa; Liquid; Vibrating tube method"}}, "note": "Numbers after ± are expanded uncertainties.", "data": [{"smiles": "C1CCCCC1", "note": "[cyclohexane] + CCCCCCCO", "values": [{"measurement": "mass density", "setting": "[1]; x1 = 1", "value": "773.6 ± 1", "unit": "kg/m3"}]}, {"smiles": "CCCCCO", "note": "[pentan-1-ol]", "values": [{"measurement": "mass density", "setting": "[2]", "value": "810.8 ± 1", "unit": "kg/m3"}]}, {"smiles": "CCCCCCCO", "note": "[heptan-1-ol]", "values": [{"measurement": "mass density", "setting": "[2]", "value": "818.7 ± 1", "unit": "kg/m3"}]}, {"smiles": "C1CCCCC1", "note": "[cyclohexane] + CCCCCO", "values": [{"measurement": "mass density", "setting": "[1]; x1 = 1", "value": "773.6 ± 1", "unit": "kg/m3"}]}, {"smiles": "CCCCCCCCCO", "note": "[nonan-1-ol]", "values": [{"measurement": "mass density", "setting": "[2]", "value": "824 ± 1", "unit": "kg/m3"}]}, {"smiles": "CCCCCCCCCO", "note": "[nonan-1-ol] + C1CCCCC1", "values": [{"measurement": "mass density", "setting": "[1]; x2 = 0", "value": "824 ± 1", "unit": "kg/m3"}, {"measurement": "mass density", "setting": "[1]; x2 = 0.0817", "value": "821.1 ± 1", "unit": "kg/m3"}, {"measurement": "mass density", "setting": "[1]; x2 = 0.1605", "value": "818 ± 1", "unit": "kg/m3"}, {"measurement": "mass density", "setting": "[1]; x2 = 0.2409", "value": "814.7 ± 1", "unit": "kg/m3"}, {"measurement": "mass density", "setting": "[1]; x2 = 0.3496", "value": "810 ± 1", "unit": "kg/m3"}, {"measurement": "mass density", "setting": "[1]; x2 = 0.4399", "value": "805.8 ± 1", "unit": "kg/m3"}, {"measurement": "mass density", "setting": "[1]; x2 = 0.5606", "value": "799.8 ± 1", "unit": "kg/m3"}, {"measurement": "mass density", "setting": "[1]; x2 = 0.6497", "value": "795.1 ± 1", "unit": "kg/m3"}, {"measurement": "mass density", "setting": "[1]; x2 = 0.7406", "value": "790 ± 1", "unit": "kg/m3"}, {"measurement": "mass density", "setting": "[1]; x2 = 0.8497", "value": "783.6 ± 1", "unit": "kg/m3"}, {"measurement": "mass density", "setting": "[1]; x2 = 0.9403", "value": "777.8 ± 1", "unit": "kg/m3"}]}, {"smiles": "CCCCCCCCO", "note": "[octan-1-ol]", "values": [{"measurement": "mass density", "setting": "[2]", "value": "821.4 ± 1", "unit": "kg/m3"}]}, {"smiles": "CCCCCCO", "note": "[hexan-1-ol] + C1CCCCC1", "values": [{"measurement": "mass density", "setting": "[1]; x2 = 0", "value": "815.1 ± 1", "unit": "kg/m3"}, {"measurement": "mass density", "setting": "[1]; x2 = 0.0811", "value": "811.6 ± 1", "unit": "kg/m3"}, {"measurement": "mass density", "setting": "[1]; x2 = 0.1597", "value": "808.2 ± 1", "unit": "kg/m3"}, {"measurement": "mass density", "setting": "[1]; x2 = 0.2415", "value": "804.6 ± 1", "unit": "kg/m3"}, {"measurement": "mass density", "setting": "[1]; x2 = 0.3498", "value": "799.8 ± 1", "unit": "kg/m3"}, {"measurement": "mass density", "setting": "[1]; x2 = 0.4412", "value": "795.8 ± 1", "unit": "kg/m3"}, {"measurement": "mass density", "setting": "[1]; x2 = 0.5588", "value": "790.7 ± 1", "unit": "kg/m3"}, {"measurement": "mass density", "setting": "[1]; x2 = 0.65", "value": "786.8 ± 1", "unit": "kg/m3"}, {"measurement": "mass density", "setting": "[1]; x2 = 0.7404", "value": "783.2 ± 1", "unit": "kg/m3"}, {"measurement": "mass density", "setting": "[1]; x2 = 0.8499", "value": "778.8 ± 1", "unit": "kg/m3"}, {"measurement": "mass density", "setting": "[1]; x2 = 0.9398", "value": "775.6 ± 1", "unit": "kg/m3"}]}, {"smiles": "CCCCCCCCCCO", "note": "[decan-1-ol] + C1CCCCC1", "values": [{"measurement": "mass density", "setting": "[1]; x2 = 0", "value": "826.1 ± 1", "unit": "kg/m3"}, {"measurement": "mass density", "setting": "[1]; x2 = 0.0819", "value": "823.7 ± 1", "unit": "kg/m3"}, {"measurement": "mass density", "setting": "[1]; x2 = 0.1596", "value": "820.8 ± 1", "unit": "kg/m3"}, {"measurement": "mass density", "setting": "[1]; x2 = 0.2401", "value": "817.6 ± 1", "unit": "kg/m3"}, {"measurement": "mass density", "setting": "[1]; x2 = 0.3482", "value": "812.9 ± 1", "unit": "kg/m3"}, {"measurement": "mass density", "setting": "[1]; x2 = 0.4395", "value": "808.7 ± 1", "unit": "kg/m3"}, {"measurement": "mass density", "setting": "[1]; x2 = 0.5598", "value": "802.6 ± 1", "unit": "kg/m3"}, {"measurement": "mass density", "setting": "[1]; x2 = 0.6498", "value": "797.6 ± 1", "unit": "kg/m3"}, {"measurement": "mass density", "setting": "[1]; x2 = 0.7404", "value": "792.3 ± 1", "unit": "kg/m3"}, {"measurement": "mass density", "setting": "[1]; x2 = 0.849", "value": "785.2 ± 1", "unit": "kg/m3"}, {"measurement": "mass density", "setting": "[1]; x2 = 0.9394", "value": "778.6 ± 1", "unit": "kg/m3"}]}, {"smiles": "C1CCCCC1", "note": "[cyclohexane] + CCCCCCCCCO", "values": [{"measurement": "mass density", "setting": "[1]; x1 = 1", "value": "773.6 ± 1", "unit": "kg/m3"}]}, {"smiles": "C1CCCCC1", "note": "[cyclohexane] + CCCCCCCCO", "values": [{"measurement": "mass density", "setting": "[1]; x1 = 1", "value": "773.6 ± 1", "unit": "kg/m3"}]}, {"smiles": "C1CCCCC1", "note": "[cyclohexane]", "values": [{"measurement": "mass density", "setting": "[2]", "value": "773.6 ± 1", "unit": "kg/m3"}]}, {"smiles": "CCCCCCCCO", "note": "[octan-1-ol] + C1CCCCC1", "values": [{"measurement": "mass density", "setting": "[1]; x2 = 0", "value": "821.4 ± 1", "unit": "kg/m3"}, {"measurement": "mass density", "setting": "[1]; x2 = 0.0815", "value": "818.3 ± 1", "unit": "kg/m3"}, {"measurement": "mass density", "setting": "[1]; x2 = 0.1602", "value": "815.1 ± 1", "unit": "kg/m3"}, {"measurement": "mass density", "setting": "[1]; x2 = 0.2408", "value": "811.7 ± 1", "unit": "kg/m3"}, {"measurement": "mass density", "setting": "[1]; x2 = 0.3494", "value": "806.9 ± 1", "unit": "kg/m3"}, {"measurement": "mass density", "setting": "[1]; x2 = 0.4398", "value": "802.7 ± 1", "unit": "kg/m3"}, {"measurement": "mass density", "setting": "[1]; x2 = 0.5605", "value": "796.8 ± 1", "unit": "kg/m3"}, {"measurement": "mass density", "setting": "[1]; x2 = 0.6496", "value": "792.4 ± 1", "unit": "kg/m3"}, {"measurement": "mass density", "setting": "[1]; x2 = 0.7404", "value": "787.8 ± 1", "unit": "kg/m3"}, {"measurement": "mass density", "setting": "[1]; x2 = 0.8495", "value": "782 ± 1", "unit": "kg/m3"}, {"measurement": "mass density", "setting": "[1]; x2 = 0.94", "value": "777 ± 1", "unit": "kg/m3"}]}, {"smiles": "C1CCCCC1", "note": "[cyclohexane] + CCCCCCO", "values": [{"measurement": "mass density", "setting": "[1]; x1 = 1", "value": "773.6 ± 1", "unit": "kg/m3"}]}, {"smiles": "CCCCCCCCCCO", "note": "[decan-1-ol]", "values": [{"measurement": "mass density", "setting": "[2]", "value": "826.1 ± 1", "unit": "kg/m3"}]}, {"smiles": "CCCCCCO", "note": "[hexan-1-ol]", "values": [{"measurement": "mass density", "setting": "[2]", "value": "815.1 ± 1", "unit": "kg/m3"}]}, {"smiles": "CCCCCCCO", "note": "[heptan-1-ol] + C1CCCCC1", "values": [{"measurement": "mass density", "setting": "[1]; x2 = 0", "value": "818.7 ± 1", "unit": "kg/m3"}, {"measurement": "mass density", "setting": "[1]; x2 = 0.0805", "value": "815.5 ± 1", "unit": "kg/m3"}, {"measurement": "mass density", "setting": "[1]; x2 = 0.1601", "value": "812.1 ± 1", "unit": "kg/m3"}, {"measurement": "mass density", "setting": "[1]; x2 = 0.2392", "value": "808.7 ± 1", "unit": "kg/m3"}, {"measurement": "mass density", "setting": "[1]; x2 = 0.3503", "value": "803.7 ± 1", "unit": "kg/m3"}, {"measurement": "mass density", "setting": "[1]; x2 = 0.4391", "value": "799.7 ± 1", "unit": "kg/m3"}, {"measurement": "mass density", "setting": "[1]; x2 = 0.5604", "value": "794 ± 1", "unit": "kg/m3"}, {"measurement": "mass density", "setting": "[1]; x2 = 0.6502", "value": "789.8 ± 1", "unit": "kg/m3"}, {"measurement": "mass density", "setting": "[1]; x2 = 0.7396", "value": "785.7 ± 1", "unit": "kg/m3"}, {"measurement": "mass density", "setting": "[1]; x2 = 0.8497", "value": "780.5 ± 1", "unit": "kg/m3"}, {"measurement": "mass density", "setting": "[1]; x2 = 0.94", "value": "776.4 ± 1", "unit": "kg/m3"}]}, {"smiles": "CCCCCO", "note": "[pentan-1-ol] + C1CCCCC1", "values": [{"measurement": "mass density", "setting": "[1]; x2 = 0", "value": "810.8 ± 1", "unit": "kg/m3"}, {"measurement": "mass density", "setting": "[1]; x2 = 0.081", "value": "807.1 ± 1", "unit": "kg/m3"}, {"measurement": "mass density", "setting": "[1]; x2 = 0.1607", "value": "803.6 ± 1", "unit": "kg/m3"}, {"measurement": "mass density", "setting": "[1]; x2 = 0.2403", "value": "800.1 ± 1", "unit": "kg/m3"}, {"measurement": "mass density", "setting": "[1]; x2 = 0.3487", "value": "795.4 ± 1", "unit": "kg/m3"}, {"measurement": "mass density", "setting": "[1]; x2 = 0.4396", "value": "791.7 ± 1", "unit": "kg/m3"}, {"measurement": "mass density", "setting": "[1]; x2 = 0.5597", "value": "787 ± 1", "unit": "kg/m3"}, {"measurement": "mass density", "setting": "[1]; x2 = 0.6498", "value": "783.7 ± 1", "unit": "kg/m3"}, {"measurement": "mass density", "setting": "[1]; x2 = 0.7408", "value": "780.6 ± 1", "unit": "kg/m3"}, {"measurement": "mass density", "setting": "[1]; x2 = 0.8499", "value": "777.1 ± 1", "unit": "kg/m3"}, {"measurement": "mass density", "setting": "[1]; x2 = 0.9406", "value": "774.8 ± 1", "unit": "kg/m3"}]}, {"smiles": "C1CCCCC1", "note": "[cyclohexane] + CCCCCCCCCCO", "values": [{"measurement": "mass density", "setting": "[1]; x1 = 1", "value": "773.6 ± 1", "unit": "kg/m3"}]}]}
